Laboratory results: patent publication US20240033200A1, “SEMI-PERMANENT TATTOOS” (Inkbox Ink Inc., priority 2020, published 2024)
Each block holds one compound with its values, some of them ahead of it.

Assays:
[1] = Reaction with L-lysine (amino acids) to mimic skin binding; colour and UV-VIS of the dye formed; conditions: for color produced upon reaction with amino acids: Additional Color Combinations; for color of dye produced by reaction with L-lysine / λmax of dye produced after reaction with L-lysine: methanol, 2 equivalents L-lysine, room temperature; for color of dye produced by reaction with L-lysine: open air; for λmax of dye produced after reaction with L-lysine: open air (44 hours for Compound 1, overnight for others); for color of solution after the addition of L-lysine: after addition of L-lysine ("Add Lysine"/"Lysine added"); for color of solution 1 hr after the addition of L-lysine: 1 hr after L-lysine; for color of L-lysine reaction solution after dilution: after dilution (vial at left); for color of solution before the addition of L-lysine: before L-lysine (Time 0)
Procedure: Compound 1 was weighed out (0.03 mmol) into a small vial equipped with a magnetic stir bar. To this vial, 1 mL of methanol was added and stirred until solubilized. L-lysine was then added to the stirred solution (2 equivalents) and the reaction mixture was capped and stirred over 44 hours at room temperature. A needle was punctured through the vial cap to ensure the reaction is conducted under open air. This method produced a yellow dye with a λmax=436 nm. See also FIGS. 26A and 26B.
Compound 10 was weighed out (n=0.03 mmol) into a small vial equipped with a magnetic stir bar. To this, 1 mL of methanol was added and stirred until solubilized. L-lysine was then added to the stirred solution (2 equivalents) and the reaction mixture was capped and stirred overnight at room temperature. A needle was punctured through the vial cap to ensure the reaction is conducted under open air. This produced a yellow dye with a λmax=433 nm.
Compound 14 was weighed out (n=0.03 mmol) into a small vial equipped with a magnetic stir bar. To this, 1 mL of methanol was added and stirred until solubilized. L-lysine was then added to the stirred solution (2 equivalents) and the reaction mixture was capped and stirred overnight at room temperature. A needle was punctured through the vial cap to ensure the reaction is conducted under open air. This produces a red dye with a λmax=480 nm.
Compound 11 was weighed out (n=0.03 mmol) into a small vial equipped with a magnetic stir bar. To this, 2.5 mL of methanol was added followed by L-lysine (0.06 mmol, 2 equivalents). The reaction mixture was stirred for 24 hours at room temperature under open air. Compound 11 and Compound 11+lysine were diluted with methanol to make 0.06 mM solutions for UV-VIS characterization.
Compound 13 was weighed out (n=0.03 mmol) into a small vial equipped with a magnetic stir bar. To this, 1.5 mL of methanol was added followed by L-lysine (0.06 mmol, 2 equivalents). The reaction mixture was stirred for 24 hours at room temperature under open air. Compound 13+lysine were diluted with methanol to make 0.06 mM solutions for UV-VIS characterization.
Compound 5 was weighed out (n=0.05 mmol) into a small vial equipped with a magnetic stir bar. To this, 2.5 mL of methanol was added followed by L-lysine (0.1 mmol, 2 equivalents). The reaction mixture was stirred for 24 hours at room temperature under open air. Compound 5 and Compound 5+lysine were diluted with methanol to make 0.1 mM solutions for UV-VIS characterization.
Compound 7 was weighed out (n=0.04 mmol) into a small vial equipped with a magnetic stir bar. To this, 2 mL of methanol was added followed by L-lysine (0.08 mmol, 2 equivalents). The reaction mixture was stirred for 24 hours at room temperature under open air. Compound 7 and Compound 7+lysine were diluted with methanol to make 0.1 and 0.15 mM solutions, respectively, for UV-VIS characterization.
Compound 9 was weighed out (n=0.03 mmol) into a small vial equipped with a magnetic stir bar. To this, 1.5 mL of methanol was added followed by L-lysine (0.06 mmol, 2 equivalents). The reaction mixture was stirred for 24 hours at room temperature under open air. Compound 9 and Compound 9+lysine were diluted with methanol to make 0.1 and 0.15 mM solutions, respectively, for UV-VIS characterization.
Genipin was weighed out (n=0.03 mmol) into a small vial equipped with a magnetic stir bar. To this, 1.5 mL of methanol was added followed by L-lysine (0.06 mmol, 2 equivalents). The reaction mixture was stirred for 24 hours at room temperature under open air. Genipin+lysine were diluted with methanol to make 0.06 mM solutions for UV-VIS characterization.
Compound 12 was weighed out (n=0.03 mmol) into a small vial equipped with a magnetic stir bar. To this, 1.5 mL of methanol was added followed by L-lysine (0.06 mmol, 2 equivalents). The reaction mixture was stirred for 24 hours at room temperature under open air. […]

[2] = Color profile of single, binary and ternary dye compositions (Table 5); conditions: total dye in the final formulation 0.008-0.40 mmol/g

SMILES: CCN(CC)C(=O)C1=CCC2C(C(=O)OC)=COC(O)C12 (stereo not drawn) [Compound 13]
color produced upon reaction with amino acids [1]: vibrant orange

SMILES: COC(=O)C1=COC(O)C2C(C=O)=CCC12 (stereo not drawn) [Compound 1]
color of solution 1 hr after the addition of L-lysine [1]: dark brown
color of solution at 44 hours after the addition of L-lysine ([1]; 44 hours): brown
color produced upon reaction with amino acids [1]: vibrant yellow
color of solution after the addition of L-lysine [1]: dark yellow
color of L-lysine reaction solution after dilution [1]: yellow
color of solution before the addition of L-lysine [1]: colorless
color of dye produced by reaction with L-lysine [1]: yellow
λmax of dye produced after reaction with L-lysine [1]: 436 nm
colors observed with L-lysine (FIG. 33) [1]: yellow

SMILES: COC(=O)C1=COC(O)C2C(C(=O)O)=CCC12 (stereo not drawn) [Compound 12]
color of solution at 18 hours after the addition of L-lysine ([1]; 18 hours): dark brown
color produced upon reaction with amino acids [1]: vibrant green
color of solution after the addition of L-lysine [1]: light yellow
color of L-lysine reaction solution after dilution [1]: light yellow
color of solution before the addition of L-lysine [1]: colorless
colors observed with L-lysine (FIG. 33) [1]: light yellow

SMILES: COC(=O)C1=COC(OC(C)=O)C2C(C=O)=CCC12 (stereo not drawn) [Compound 2]
Color when reacted with amino acids [2]: Vibrant Red

SMILES: COC(=O)C1=COC(O)[C@@H]2C(/C=C/c3ccc([N+](=O)[O-])cc3)=CC[C@H]12 (stereo partly drawn) [Compound 9]
color produced upon reaction with amino acids [1]: vibrant red

SMILES: COC(=O)C1=COC(O)[C@@H]2C(/C=C/c3ccccc3)=CC[C@H]12 (stereo partly drawn) [Compound 7]
color produced upon reaction with amino acids [1]: vibrant red

SMILES: COC(=O)C1=CO[C@@H](O)[C@@H]2C(CO)=CC[C@H]12 [genipin, reference compound]
color of solution 1 hr after the addition of L-lysine [1]: dark blue
color of solution after the addition of L-lysine [1]: yellow
color of L-lysine reaction solution after dilution [1]: light blue
color of solution before the addition of L-lysine [1]: colorless
colors observed with L-lysine (FIG. 33) [1]: light blue

Other lines, results leading:

color of dye produced by reaction with L-lysine [1]: red
λmax of dye produced after reaction with L-lysine [1]: 480 nm
SMILES: O=C1C(O)=C(c2ccccc2)C(=O)c2ccccc21 [Compound 14, 2-Hydroxy-3-phenyl-1,4-Naphthalenedione]

color produced upon reaction with amino acids [1]: vibrant red
SMILES: CCOC(=O)C(=CC1=CCC2C(C(=O)OC)=COC(OC(C)=O)C12)C(=O)OCC (stereo not drawn) [Compound 11]

color of solution after the addition of L-lysine [1]: light brown
color of dye produced by reaction with L-lysine [1]: yellow
λmax of dye produced after reaction with L-lysine [1]: 433 nm
SMILES: COC(=O)C1=COC(O)C2C1CC1COC12O (stereo not drawn) [Compound 10]
